The NIST ThermoML archive (doi:10.1021/je900359y)

Test: mn = molality of the nth substance listed, in mol/kg
Details: Liquid, Constant-volume piezometry

[Br-].[NH4+] [ammonium bromide] + N
mass density [kg/m3]
Details | 303.15 K | 313.15 K | 323.15 K | 333.15 K | 343.15 K | 353.15 K | 363.15 K | 373.15 K
10000 kPa, m1 = 1.143 | 675.9 | 661.3 | 646.8 | 630.2 | 612.8 | 594.5 | 576 | –
10000 kPa, m1 = 2.601 | 750.8 | 737.8 | 724.3 | 709.5 | 693.7 | 676.6 | 659.3 | –
10000 kPa, m1 = 4.381 | 829 | 817.3 | 805 | 791.1 | 778.3 | 765.5 | 748.7 | 737.7
10000 kPa, m1 = 7.359 | 939.1 | 926.8 | 914.3 | 903.1 | 891.2 | 878.6 | 866.4 | 854.6
10000 kPa, m1 = 10.35 | 1028.9 | 1017 | 1005.2 | 994.4 | 983.9 | 973 | 961.1 | 950.1
10000 kPa, m1 = 15.17 | 1126.2 | 1116.9 | 1105.9 | 1096 | 1086.6 | – | 1067.8 | 1057.7
15000 kPa, m1 = 1.143 | 679.5 | 665.1 | 651.2 | 635.4 | 618.5 | 601.3 | 583.7 | 569.5
15000 kPa, m1 = 2.601 | 754.5 | 741.4 | 727.7 | 714 | 698.1 | 681.9 | 665.4 | 652.4
15000 kPa, m1 = 4.381 | 832.7 | 820.9 | 808.9 | 795.1 | 782.6 | 769.6 | 754.3 | 742.9
15000 kPa, m1 = 7.359 | 942.7 | 929.8 | 917.4 | 906.7 | 894.7 | 882.5 | 870.2 | 858.5
15000 kPa, m1 = 10.35 | 1032.2 | 1020.3 | 1008.3 | 997.8 | 987.4 | 976.5 | 965.6 | 954.3
15000 kPa, m1 = 15.17 | 1128.1 | 1118.8 | 1107.8 | 1098.2 | 1089.1 | – | 1070.1 | 1060.3
20000 kPa, m1 = 1.143 | 682.7 | 668.9 | 655.4 | 640.3 | 624.1 | 607.9 | 590.9 | 577.4
20000 kPa, m1 = 2.601 | 758 | 745 | 731.4 | 718.3 | 702.6 | 687.1 | 671.2 | 658.4
20000 kPa, m1 = 4.381 | 836.1 | 824.2 | 812.6 | 799.1 | 786.7 | 773.8 | 759.5 | 748
20000 kPa, m1 = 7.359 | 945.8 | 932.8 | 920.3 | 909.8 | 898.2 | 886.2 | 873.8 | 862.2
20000 kPa, m1 = 10.35 | 1034.9 | 1023.2 | 1011.2 | 1001.2 | 991.3 | 979.8 | 969 | 958
20000 kPa, m1 = 15.17 | 1130.1 | 1120.4 | 1109.7 | 1100.3 | 1091.2 | – | 1072.4 | 1062.6
25000 kPa, m1 = 1.143 | 686.3 | 672.6 | 659.7 | 645.1 | 629.9 | 614.6 | 598.2 | 585.2
25000 kPa, m1 = 2.601 | 761.3 | 748.6 | 734.9 | 722.5 | 707.2 | 692 | 677.1 | 664.3
25000 kPa, m1 = 4.381 | 839.1 | 827.6 | 816.1 | 803 | 790.7 | 778.1 | 764.4 | 752.9
25000 kPa, m1 = 7.359 | 948.9 | 935.5 | 923 | 912.7 | 901.6 | 889.7 | 877.4 | 865.9
25000 kPa, m1 = 10.35 | 1037.4 | 1025.9 | 1014.1 | 1004 | 993.6 | 983 | 972.5 | 961.3
25000 kPa, m1 = 15.17 | 1132 | 1122 | 1111.5 | 1102.2 | 1093.3 | – | 1074.8 | 1065.1
30000 kPa, m1 = 1.143 | 689.5 | 676.3 | 663.8 | 649.5 | 635.4 | 621.2 | 605.2 | 592.7
30000 kPa, m1 = 2.601 | 764.4 | 752.1 | 738.7 | 726.3 | 711.7 | 697 | 682.6 | 670
30000 kPa, m1 = 4.381 | 842.1 | 830.7 | 819.4 | 807.1 | 794.2 | 782.2 | 769 | 757.6
30000 kPa, m1 = 7.359 | 951.2 | 938 | 926 | 915.6 | 904.9 | 893.2 | 881.3 | 870
30000 kPa, m1 = 10.35 | 1039.8 | 1028.6 | 1016.7 | 1006.9 | 995.8 | 986.6 | 975.7 | 964.7
30000 kPa, m1 = 15.17 | 1134 | 1123.6 | 1113.4 | 1104 | 1095.4 | – | 1076.8 | 1067.1
